Data from patent US5504105A, “Pharmaceutical compositions containing ipriflavone, process for the preparation thereof and relative therapeutic use” (priority 1990, dated 1996).

Columns and labels:
[1] = Further comparative bioavailability study: urinary excretion, treatments A and B, twelve healthy volunteers; format: in vivo, young healthy volunteers (human); conditions: each treatment, second study
Protocol: (§1) In this comparative study all the conditions that could influence in some measure the bioavailability behaviour such as meals, drug administration or samples collection were strictly standardized.
(§2) The study was carried out in twelve young healthy volunteers in good health.
(§3) All the subjects were on a standard diet for all the period of the study.
(§4) For each treatment, after an overnight fast, each subject received at 8:00 a.m. on Day 1 the first oral dosing. From Day 1 to Day 10 the daily doses were administered during the meals. The two different treatments (A and B) were the following:
(§5) Treatment A: one 200 mg Ipriflavone Tablet 3 times daily at 8:00 a.m. , 1:00 p.m. and 8:00 p.m.;
(§6) Treatment B: one 300 mg Ipriflavone Scherer capsule two times daily at 8:00 a.m. and 8:00 p.m.

[2] = In-vivo bioavailability test: urinary excretion, capsules vs tablets, 8 healthy adult volunteers; parameters: species or system healthy adult volunteers (human); conditions: first study
Protocol: Concomitant drug treatment was avoided.
Urine was collected over the 24 hour period before treatment and on the tenth and eleventh days over the periods 0-24 hours and 24-48 hours after the assumption of the last dose. A homogenous sample (10 ml approx.) was prepared from the total urine excreted on the tenth and eleventh days; this sample was then stored at -20° C. until analised by HPLC.
The pharmacokinetic data were compared with those obtained administering an equivalent dose of ipriflavone in the standard formulation of 200 mg tablets three times daily (total dose 600 mg) according to an analogous study protocol.

[3] = in vivo; cited from earlier work
[4] = cited from earlier work
[5] = human, in vivo
Protocol: as §1, §2, §3, §4, §5, §6

Compound: CC(C)Oc1ccc2c(=O)c(-c3ccccc3)coc2c1 [Ipriflavone]
- unchanged ipriflavone in urine [1]: no unchanged ipriflavone levels were found
- unchanged ipriflavone in urine [2]: no detectable levels
- effectiveness in osteoporosis [3]: effective in preventing and treating post-menopausal and senile osteoporosis
- half-life ([4]; human, in vivo, po): 9.8 h
- peak plasma concentration of the unchanged drug ([4]; human, in vivo, po): 170 ng/mL
- time to peak plasma concentration after administration ([4]; human, in vivo, po): 1.3 h
- absorption and metabolism in man ([4]; oral, man): absorbed rapidly and, furtherly, extensively metabolised equally rapidly
- mean increment in bioavailability [5]: 35%
- plasma levels / metabolization in man [5]: could not be quantified in several subjects
